Test results published in patent US8734796B2, “Carrier immunoglobulins” (Amgen Inc., priority 2009, dated 2014).
No end group written: not given here.

Experiments:
[1] = system: thapsigargin-induced IL-2 secretion from T cells in human whole blood; assay: Human whole blood ex vivo assay, IL-2 secretion; format: cell-based; conditions: for IC50: 50% human whole blood, thapsigargin stimulus, 48 hours, read-out: WB (IL-2) IC50
[2] = system: thapsigargin-induced IFN-g secretion from T cells in human whole blood; assay: Human whole blood ex vivo assay, IFN-g secretion; format: cell-based; conditions: 50% human whole blood, thapsigargin stimulus, 48 hours; read-out: WB (IFNg) IC50
[3] = molecular target: cloned hKv1.5 (Homo sapiens, UniProt P22460); assay: FASTPatch PatchXpress counterscreen, hKv1.5; format: cell-based; conditions: positive control, 2 mM
[4] = reported by C. Beeton et al., PNAS 98:13942 (2001); cited from earlier work
[5] = molecular target: T1, cloned hKv4.3 (Homo sapiens, UniProt Q9UK17); assay: FASTPatch PatchXpress counterscreen, hKv4.3; format: cell-based; conditions: positive control, 0.1 mM
T1 sequence (Q9UK17 1-655): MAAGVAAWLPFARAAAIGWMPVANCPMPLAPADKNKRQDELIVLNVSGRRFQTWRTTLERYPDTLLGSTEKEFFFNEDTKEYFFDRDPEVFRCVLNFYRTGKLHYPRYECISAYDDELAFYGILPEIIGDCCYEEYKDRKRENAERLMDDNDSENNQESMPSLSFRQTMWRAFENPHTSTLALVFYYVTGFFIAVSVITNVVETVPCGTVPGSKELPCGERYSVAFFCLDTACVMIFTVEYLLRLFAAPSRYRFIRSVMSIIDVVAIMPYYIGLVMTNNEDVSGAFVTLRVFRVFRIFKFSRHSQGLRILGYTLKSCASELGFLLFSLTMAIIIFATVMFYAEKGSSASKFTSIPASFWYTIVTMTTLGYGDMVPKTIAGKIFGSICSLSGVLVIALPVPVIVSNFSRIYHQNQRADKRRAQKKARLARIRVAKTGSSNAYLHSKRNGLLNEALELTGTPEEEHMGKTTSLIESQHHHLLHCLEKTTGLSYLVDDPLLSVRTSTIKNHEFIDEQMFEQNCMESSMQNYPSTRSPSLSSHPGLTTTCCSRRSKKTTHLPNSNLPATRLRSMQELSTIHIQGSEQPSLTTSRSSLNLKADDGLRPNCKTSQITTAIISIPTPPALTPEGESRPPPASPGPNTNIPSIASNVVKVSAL

[6] = molecular target: human Kv1.3 (Homo sapiens, UniProt P22001); assay: Whole cell patch clamp electrophysiology, Kv1.3
[7] = molecular target: T2, DNP(31)-BSA (Bos taurus, UniProt P02769); assay: BIAcore binding assay, DNP(31)-BSA; conditions: apparent
T2 construct: purchased Biosearch Technologies, Inc. (Novato, Calif.)
Method: Materials. Purified anti-DNP antibodies from either hybridoma (3A1, 3C2, 3A4 and 3B1) or recombinant CHO (3A4-F-G2 and 3B1-G2) expression were tested. Anti-human IgG, Fcγ-specific antibody was from Jackson ImmunoResearch Laboratories, Inc. (West Grove, Pa.). DNP-BSA (2,4-dinitrophenol conjugated to bovine serum albumin) was from Biosearch Technologies, Inc. (Novato, Calif.). BIACore 2000, research grade sensor chip CM5, surfactant P-20 (polyoxyethylenesorbitan), HBS-EP (10 mM HEPES, 0.15M NaCl, 3.4 mM EDTA, 0.005% P-20, pH 7.4), amine coupling reagents, 10 mM acetate pH 4.0 and 10 mM glycine, pH 1.5 were from BIACore, Inc. (Piscataway, N.J.). Phosphate-buffered saline (PBS, 1×, no calcium chloride, no magnesium chloride) was from Invitrogen (Carlsbad, Calif.). Bovine serum albumin (BSA, fraction V, IgG free) was from Sigma (St. Louis, Mo.).
Methods. BIAcore® analyses were carried out as follows. Immobilization of anti-human IgG, Fcγ-specific antibody to the CM5 sensor chip surface was performed according to manufacturer's instructions, using a continuous flow of 10 mM HEPES, 0.15M NaCl, 3.4 mM EDTA, 0.005% P-20, pH 7.4 (HBS-EP buffer). Briefly, carboxyl groups on the sensor chip surfaces were activated by injecting 60 μL of a mixture containing 0.2 M 1-ethyl-3-[3-dimethylaminopropyl]carbodiimide hydrochloride (EDC) and 0.05 M N-hydroxysuccinimide (NHS). Specific surfaces were obtained by injecting 180 μL of anti-human IgG, Fcγ-specific antibody diluted in 10 mM acetate buffer (for assay of aKLH antibodies: pH 4.5 at a concentration of 30 μg/mL; for assay of aDNP antibodies: pH 4.0 at a concentration of 60 μg/mL). Excess reactive groups on the surfaces were deactivated by injecting 60 μL of 1 M ethanolamine. Final immobilized levels were about 9,000 (for assay of aKLH antibodies) or about 10,000 (for assay of aDNP antibodies) resonance units (RU). A blank, mock-coupled reference surface was also prepared on the sensor chip. Antibodies and antigen were diluted in sample buffer consisting of PBS+0.005% P-20+0.1 mg/mL BSA. […]

T2 sequence (P02769 25-607): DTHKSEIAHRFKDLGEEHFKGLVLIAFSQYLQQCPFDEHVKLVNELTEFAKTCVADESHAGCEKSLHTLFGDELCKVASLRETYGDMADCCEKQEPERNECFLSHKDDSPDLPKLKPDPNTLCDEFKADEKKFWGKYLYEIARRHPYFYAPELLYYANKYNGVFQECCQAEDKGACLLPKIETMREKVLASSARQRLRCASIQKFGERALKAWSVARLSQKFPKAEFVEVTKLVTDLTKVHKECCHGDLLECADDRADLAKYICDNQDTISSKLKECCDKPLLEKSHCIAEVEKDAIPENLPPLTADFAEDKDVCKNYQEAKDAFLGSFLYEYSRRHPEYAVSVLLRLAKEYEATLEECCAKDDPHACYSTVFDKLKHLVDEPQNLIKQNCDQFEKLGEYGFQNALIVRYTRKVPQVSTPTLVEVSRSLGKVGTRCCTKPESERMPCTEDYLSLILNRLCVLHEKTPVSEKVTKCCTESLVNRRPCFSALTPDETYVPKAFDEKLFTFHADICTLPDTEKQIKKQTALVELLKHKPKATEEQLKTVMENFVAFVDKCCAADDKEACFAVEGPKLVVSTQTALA
human Kv1.3, sequence (P22001 whole entry): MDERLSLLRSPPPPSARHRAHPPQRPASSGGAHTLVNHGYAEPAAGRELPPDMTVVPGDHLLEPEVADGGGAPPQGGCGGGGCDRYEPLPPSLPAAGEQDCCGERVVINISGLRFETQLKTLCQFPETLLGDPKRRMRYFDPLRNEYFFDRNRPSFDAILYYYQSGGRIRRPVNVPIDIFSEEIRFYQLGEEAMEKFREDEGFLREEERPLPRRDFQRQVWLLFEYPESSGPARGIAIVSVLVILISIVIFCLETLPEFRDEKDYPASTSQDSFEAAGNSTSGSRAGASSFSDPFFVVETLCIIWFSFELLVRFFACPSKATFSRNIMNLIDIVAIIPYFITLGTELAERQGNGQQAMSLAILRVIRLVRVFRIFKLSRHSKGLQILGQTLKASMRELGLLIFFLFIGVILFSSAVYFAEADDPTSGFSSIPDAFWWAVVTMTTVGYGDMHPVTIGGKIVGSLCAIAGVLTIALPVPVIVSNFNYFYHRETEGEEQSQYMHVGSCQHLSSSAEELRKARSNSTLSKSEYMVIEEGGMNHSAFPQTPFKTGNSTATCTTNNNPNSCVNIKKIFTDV
cloned hKv1.5, sequence (P22460 whole entry): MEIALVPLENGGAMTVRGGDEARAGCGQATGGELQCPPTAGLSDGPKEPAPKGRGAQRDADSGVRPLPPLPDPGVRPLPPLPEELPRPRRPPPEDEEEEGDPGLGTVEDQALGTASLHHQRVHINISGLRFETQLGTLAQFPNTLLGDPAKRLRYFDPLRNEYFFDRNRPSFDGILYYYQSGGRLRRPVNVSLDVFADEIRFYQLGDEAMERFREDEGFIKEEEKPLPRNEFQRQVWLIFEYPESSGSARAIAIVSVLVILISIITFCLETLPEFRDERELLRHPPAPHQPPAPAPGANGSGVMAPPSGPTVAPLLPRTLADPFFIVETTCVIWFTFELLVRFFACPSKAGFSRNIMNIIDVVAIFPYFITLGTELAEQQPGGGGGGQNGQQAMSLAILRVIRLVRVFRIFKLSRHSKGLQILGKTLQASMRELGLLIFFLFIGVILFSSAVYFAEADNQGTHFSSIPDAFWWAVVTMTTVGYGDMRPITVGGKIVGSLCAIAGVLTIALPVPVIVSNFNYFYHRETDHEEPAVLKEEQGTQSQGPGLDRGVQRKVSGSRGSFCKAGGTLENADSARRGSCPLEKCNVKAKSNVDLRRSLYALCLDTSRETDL

20 kDa-PEG-ShK: SEQ ID NO:363; ShK PEGylated at its N-terminus with 20 kDa PEG [reference compound]
IC50 [1]: 0.38 nM
IC50 [2]: 0.84 nM

Nc1ccncc1 [4-aminopyridine]
block of the hKv1.5 current [3]: about 80%

CC[C@H](C)[C@@H]1NC(=O)[C@@H](NC(=O)[C@H](CO)NC(=O)[C@@H](N)CCCNC(=N)N)CSSC[C@@H](C(=O)O)NC(=O)[C@H]([C@@H](C)O)NC(=O)CNC(=O)[C@@H]2CSSC[C@@H]3NC(=O)[C@H](CCC(N)=O)NC(=O)[C@H](Cc4ccccc4)NC(=O)[C@H](C)NC(=O)[C@H]([C@@H](C)O)NC(=O)[C@H](CSSC[C@H](NC(=O)[C@H](Cc4ccccc4)NC(=O)[C@H](CO)NC(=O)[C@H](CC(C)C)NC(=O)[C@H](CCCNC(=N)N)NC(=O)[C@H](Cc4ccc(O)cc4)NC(=O)[C@H](CCCCN)NC(=O)[C@H](CCSC)NC(=O)[C@H](CO)NC(=O)[C@H](Cc4cnc[nH]4)NC(=O)[C@H](CCCCN)NC3=O)C(=O)N[C@@H](CCCNC(=N)N)C(=O)N[C@@H](CCCCN)C(=O)N[C@@H]([C@@H](C)O)C(=O)N2)NC(=O)[C@H](CCCNC(=N)N)NC(=O)[C@H](CO)NC(=O)[C@H](CCCCN)NC(=O)[C@@H]2CCCN2C(=O)[C@H]([C@@H](C)CC)NC(=O)[C@H]([C@@H](C)O)NC(=O)[C@H](CC(=O)O)NC1=O [ShK(1-35), ShK]
half-life [4]: 20 to 30 min

O=C(NCC1CCCCN1)c1cc(OCC(F)(F)F)ccc1OCC(F)(F)F (stereo not drawn) [flecamide]
inhibition of the hKv4.3 current [5]: about 75%

Bivalent Fc-L10-ShK[1-35] homodimer: IgG1 Fc-L10-ShK(1-35) peptibody homodimer, Example 1 of WO2008/088422A2 (GGGGSGGGGSRSCIDTIPKSRCTAFQCKHSMKYRLSFCRKTCGTC; not fully specified (N-terminus); ends and bridges not checked; also: homodimer via Fc) [reference compound]
IC50 [1]: 0.386 nM
IC50 [2]: 0.32 nM
greater Kv1.3 activity compared to the bivalent Fc-L10-ShK(2-35) molecule ([6]; whole cell patch clamp electrophysiology): about 8 fold

Bivalent Fc-L10-ShK[2-35] homodimer: IgG1 Fc-L10-ShK(2-35) peptibody homodimer, Example 2 of WO2008/088422A2 (GGGGSGGGGSSCIDTIPKSRCTAFQCKHSMKYRLSFCRKTCGTC; not fully specified (N-terminus); ends and bridges not checked; also: homodimer via Fc) [reference compound]
IC50 [1]: 0.585 nM
Potency Relative to ShK (WB, IL2) ([1]; ratio of WB IL-2 IC50 to that of ShK(1-35)): 8.73
IC50 [2]: 2.29 nM
Kv1.1/Kv1.3 Selectivity Ratio (of asterisked IC50 values) ([6]; IC50 values from whole cell patch clamp): 3.54

B1: 3B1-G2: recombinant IgG2 form of anti-DNP antibody 3B1 (protein)
light: DIQMTQSPSSLSASEGDRVTITCRASQGIRNDLGWYQQKPGKAPKRLIYAASSLQSGVPLRFSGSGSGTEFTLTISSLQPEDFATYYCLQYNSYPWTFGQGTKVEIKRTVAAPSVFIFPPSDEQLKSGTASVVCLLNNFYPREAKVQWKVDNALQSGNSQESVTEQDSKDSTYSLSSTLTLSKADYEKHKVYACEVTHQGLSSPVTKSFNRGEC
heavy: QVQLQESGPGLVKPSETLSLTCTVSGGSISSYYWSWIRQPPGKGLEWIGYIYYSGNTNSNPSLKSRVTISVDTSKNQFSLKLSSVTAADTAVYYCARTYYDSSGYYYRAFDIWGQGTMVTVSSASTKGPSVFPLAPCSRSTSESTAALGCLVKDYFPEPVTVSWNSGALTSGVHTFPAVLQSSGLYSLSSVVTVPSSNFGTQTYTCNVDHKPSNTKVDKTVERKCCVECPPCPAPPVAGPSVFLFPPKPKDTLMISRTPEVTCVVVDVSHEDPEVQFNWYVDGVEVHNAKTKPREEQFNSTFRVVSVLTVVHQDWLNGKEYKCKVSNKGLPAPIEKTISKTKGQPREPQVYTLPPSREEMTKNQVSLTCLVKGFYPSDIAVEWESNGQPENNYKTTPPMLDSDGSFFLYSKLTVDKSRWQQGNVFSCSVMHEALHNHYTQKSLSLSPGK
Kd [7]: 0.7 nM
ka, Binding to DNP(31)-BSA ([7]; ne(y) = n × 10^(y)): 420000 M⁻¹ s⁻¹
kd, Binding to DNP(31)-BSA ([7]; ne(y) = n × 10^(y)): 0.00031 s⁻¹
